Data reported in ChEMBL document CHEMBL1201862, “PubChem BioAssay data set” (2004).
One block for each molecule: values may come before it. Active and inactive are the calls of the source.

Columns and labels:
Type in all cases: functional
Transthyretin = Transthyretin (Homo sapiens, UniProt P02766); assay: Luminescence-based cell-based high throughput dose response assay to identify activators of Transthyretin (TTR) transcription.
[1] = inhibitors of TRPM1-promoter reporter in SK-MEL-5 – cell-based, luciferase, dry powder, set 9, MITF inhibitor project, dose response (AID 651588)
[2] = cytotoxicity in MITF-independent A375 cells – cell-based, CellTiter-Glo luminescence, dry powder, set 4, counter-screen for MITF inhibitor project, dose response (AID 624364); details: A-375;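 note: A375 melanoma cells are MITF independent so this is a counter screen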
[3] = viability loss in MITF-independent A375 cells – cell-based, CellTiter-Glo luminescence, dry powder, set 7, counter-screen for MITF inhibitor project, dose response (AID 624490); details: A-375
[4] = MITF Orthogonal Assay: MALME3 CTG Assay Measured in Cell-Based System Using Plate Reader - 2084-04_Inhibitor_Dose_DryPowder_Activity_Set6.; details: MALME-3
[5] = growth inhibition of SK-MEL-5 melanoma cells – cell-based, CellTiter-Glo luminescence, dry powder, set 8, orthogonal assay for MITF inhibitor project, dose response (AID 651586)
[6] = growth inhibition of MALME3 cells – cell-based, CellTiter-Glo luminescence, dry powder, set 5, orthogonal assay for MITF inhibitor project, dose response (AID 651584); details: MALME-3
[7] = cytotoxicity in melanoma parental cells – cell-based, CellTiter-Glo, dry powder, set 6, MITF inhibitor project, dose response (AID 624429); details: SK-MEL-5
[8] = MITF Orthogonal Assay: SK-MEL-5 CTG Assay Measured in Cell-Based System Using Plate Reader - 2084-02_Inhibitor_Dose_DryPowder_Activity_Set5.
[9] = MITF Measured in Cell-Based System Using Plate Reader - 2084-01_Inhibitor_Dose_DryPowder_Activity_Set6.
[10] = MITF Measured in Cell-Based System Using Plate Reader - 2084-01_Inhibitor_Dose_DryPowder_Activity_Set7.
[11] = melanocyte viability loss, MITF-dependent cells, cell-based, plate reader, dry powder, cytotoxicity control, dose response (AID 651920)
[12] = BioA aminotransferase inhibition, coupled fluorescent readout – biochemical, coupled fluorescence displacement, 20-point, dry powder, dose response (AID 743357)

- EC50 (Transthyretin): > 167 µM (inactive)
SMILES: C=CCn1c(=O)c2c(nc3n2CC(C)CN3Cc2ccccc2)n(C)c1=O (stereo not drawn)

SMILES: O=C1C=C(NS(=O)(=O)c2cccs2)C(=O)c2ccccc21
- AC50 [1]: 16.9 µM (active)
- AC50 [2]: > 70 µM (inactive)
- AC50 [3]: > 70 µM (inactive)
- AC50 [4]: 57.6 µM (active)
- AC50 [5]: 32.8 µM (active)
- AC50 [6]: 57.6 µM (active)
- AC50 [7]: 13.3 µM (active)
- AC50 [8]: 15.8 µM (active)
- AC50 [9]: 6.01 µM (active)
- AC50 [10]: 5.89 µM (active)
- AC50 [11]: 17.6 µM (active)

SMILES: O=C(c1ccc2c(c1)OCO2)N1CCN(c2ccc(S(=O)(=O)C(F)F)cc2)CC1
- AC50 [12]: 16.7 µM (active)
